Measured values published in patent US8859018B2, “Delivery carrier for antimicrobial essential oils” (Nestec S.A., priority 2010, dated 2014).

Columns and labels:
Assay in all cases: Challenge test in fresh and aged oyster sauce (Example 3)
Format in all cases: cell-based
Details in all cases: oyster sauce aged 0 to 6 months; KS 0.10 wt %, garlic EO 0.12 wt %; one week to at least 4 weeks after start
[1] = system: Eurotium amstelodami
Experimental: (§1) Fresh oyster sauce (OS) tested was the commercial MAGGI Oyster Sauce product from Singapore. The OS was first pasteurized according to standard procedures. After cooling, the samples were divided into 3 groups: A) a negative control group where just 5% of sterilized water was added; B) a positive control group where potassium sorbate (KS) was added to a final concentration of 0.10 wt %; and group C) where a garlic EO acacia gum emulsion (1:1 wt ratio) was added to a final concentration of the EO of 0.12 wt %. Potassium sorbate (E number 202) is widely used as a food preservative and serves here as a positive control. Garlic EO is from Synthite Industries. It was emulsified with acacia gum in the same way as the oregano EO in Example 1.
(§2) The three OS samples were stored (i.e. aged) at 30° C. and ca. 65% relative humidity.
(§3) Microbiological challenge tests were performed directly after preparation of the OS samples, labelled as 0 month, and then after 3 and 6 months of storage, respectively. The challenge tests were performed in the same way as described in Example 1. However, instead of using Saccharomyces cerevisiae as spoilage culture, individual cultures of Aspergillus niger, Penicillium nalgiovense and Eurotium amstelodami were used.

[2] = system: Penicillium nalgiovense
Experimental: as §1, §2, §3

[3] = system: Aspergillus niger
Experimental: as §1, §2, §3

Measured: growth of the mould strain

C/C=C/C=C/C(=O)[O-].[K+] [KS, potassium sorbate]
no detectable growth: all assays above
